Test results as given in patent publication US20240158446A1, “CYCLIC COMPOUND HAVING SELECTIVE INHIBITORY ACTION ON KRAS OVER HRAS AND NRAS” (CHUGAI SEIYAKU KABUSHIKI KAISHA, priority 2021, published 2024).
Where a SMILES comes first, the peptide text is derived from it. Bridges are numbered along the chain shown (N, C = ends). [ ]: non-standard residue; d: D form. The star is where a group is joined. hPhe(3,5-F2-4-CF3) = N[C@@H](CCc1cc(F)c(C(F)(F)F)c(F)c1)C(=O)O; hPhe(3-Cl-4-CF3) = N[C@@H](CCc1ccc(C(F)(F)F)c(Cl)c1)C(=O)O; NPrPhe(4-CF3) = CCCN[C@@H](Cc1ccc(C(F)(F)F)cc1)C(=O)O; NMeGly(cPent) = CN[C@H](C(=O)O)C1CCCC1; Pro(4,4-F2) = O=C(O)[C@@H]1CC(F)(F)CN1; αMeCha = C[C@](N)(CC1CCCCC1)C(=O)O; NMeD = CN[C@@H](CC(=O)O)C(=O)O; NMeL = CN[C@@H](CC(C)C)C(=O)O; Morpholide = C1CN(*)CCO1; NMeA = CN[C@@H](C)C(=O)O; Ac5c = NC1(C(=O)O)CCCC1; Aze = O=C(O)[C@@H]1CCN1; Ac4c = NC1(C(=O)O)CCC1; Sar = CNCC(=O)O

Tests used:
[1] = molecular target: GDP-bound NRAS wild-type protein (Homo sapiens, UniProt P01111); test: Binding to NRAS by surface plasmon resonance (SPR), Single Cycle Kinetics
Sequence of GDP-bound NRAS wild-type protein (P01111 whole entry): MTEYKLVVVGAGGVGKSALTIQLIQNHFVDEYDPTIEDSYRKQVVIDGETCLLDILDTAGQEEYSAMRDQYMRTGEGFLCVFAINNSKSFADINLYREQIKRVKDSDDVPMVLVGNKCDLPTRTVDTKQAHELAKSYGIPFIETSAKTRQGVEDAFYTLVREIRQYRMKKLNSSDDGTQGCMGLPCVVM

[2] = molecular target: GDP-bound HRAS wild-type protein (Homo sapiens, UniProt P01112); test: Binding to HRAS by surface plasmon resonance (SPR), Single Cycle Kinetics
Sequence of GDP-bound HRAS wild-type protein (P01112 whole entry): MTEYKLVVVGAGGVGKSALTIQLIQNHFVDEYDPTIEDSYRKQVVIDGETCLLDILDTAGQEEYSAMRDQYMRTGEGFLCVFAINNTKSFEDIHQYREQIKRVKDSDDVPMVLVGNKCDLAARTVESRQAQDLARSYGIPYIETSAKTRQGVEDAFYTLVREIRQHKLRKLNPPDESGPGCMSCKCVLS

[3] = molecular target: GDP-bound KRAS wild-type protein (Homo sapiens, UniProt P01116); test: Binding to KRAS by surface plasmon resonance (SPR), Single Cycle Kinetics; conditions: SPR Single Cycle Kinetics, GDP-bound KRAS wild-type protein, 1:1 binding model; read-out: KRAS KD
Sequence of GDP-bound KRAS wild-type protein (P01116 whole entry): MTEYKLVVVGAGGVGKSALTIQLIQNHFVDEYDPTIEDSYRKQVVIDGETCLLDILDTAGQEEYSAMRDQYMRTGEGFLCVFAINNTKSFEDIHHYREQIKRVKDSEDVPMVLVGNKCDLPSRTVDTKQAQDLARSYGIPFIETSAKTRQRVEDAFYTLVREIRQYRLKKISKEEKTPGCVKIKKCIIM

[4] = SPR, GDP-bound NRAS wild-type protein vs GDP-bound KRAS wild-type protein
[5] = SPR, GDP-bound HRAS wild-type protein vs GDP-bound KRAS wild-type protein

Row | Compound | NRAS/KRAS (ratio of KD value for NRAS to KD value for KRAS) [1, 4] | HRAS/KRAS (ratio of KD value for HRAS to KD value for KRAS) [2, 5] | Kd [3] [nM] | NRAS/KRAS (ratio of KD value with respect to NRAS to KD value with respect to KRAS) [1, 4] | HRAS/KRAS (ratio of KD value with respect to HRAS to KD value with respect to KRAS) [2, 5] | NRAS/KRAS (ratio of KD value with respect to GDP-bound NRAS wild-type protein to KD value with respect to KRAS) ([1]; SPR KD ratio NRAS/KRAS, class symbols) | HRAS/KRAS (ratio of KD value with respect to GDP-bound HRAS wild-type protein to KD value with respect to KRAS) ([2]; SPR KD ratio HRAS/KRAS, class symbols)
1 | CCCN1C(=O)[C@@H]2CCN2C(=O)[C@H](C)N(C)C(=O)[C@H]([C@@H](C)CC)NC(=O)[C@H](CC(C)C)N(C)C(=O)C[C@@H](C(=O)N2CCOCC2)NC(=O)[C@H](C2CCCC2)N(C)C(=O)C2(CCC2)NC(=O)[C@@H]2CCCN2C(=O)[C@H](CCc2ccc(C(F)(F)F)c(Cl)c2)NC(=O)CN(C)C(=O)[C@@H]1Cc1ccc(C(F)(F)F)cc1 [PP0344] ([NMeL]I[NMeA][Aze][NPrPhe(4-CF3)][Sar][hPhe(3-Cl-4-CF3)]P[Ac4c][NMeGly(cPent)]D-Morpholide; lactam N-11) | C (A compound having a KD ratio of 0.1 or more and less than 3 is denoted as C) | B (a compound having 3 or more and less than 10 is denoted as B) | 1.1 |  |  |  | 
2 | CCCN1C(=O)CN(C)C(=O)CN(C)C(=O)[C@H]([C@@H](C)CC)NC(=O)[C@H](CC(C)C)N(C)C(=O)C[C@@H](C(=O)N2CCOCC2)N(C)C(=O)[C@H](C2CCCC2)N(C)C(=O)[C@](C)(CC2CCCCC2)NC(=O)[C@@H]2CCCN2C(=O)[C@H](CCc2cc(F)c(C(F)(F)F)c(F)c2)NC(=O)CN(C)C(=O)[C@@H]1Cc1ccc(C(F)(F)F)cc1 [PP0760] ([NMeL]I[Sar][Sar][NPrPhe(4-CF3)][Sar][hPhe(3,5-F2-4-CF3)]P[αMeCha][NMeGly(cPent)][NMeD]-Morpholide; lactam N-11) |  |  | 16 | B (a compound having 3 or more and less than 10 is denoted as B) | C (A compound having a KD ratio of 0.1 or more and less than 3 is denoted as C) |  | 
3 | CCCN1C(=O)[C@@H]2CCN2C(=O)CN(C)C(=O)[C@H]([C@@H](C)CC)NC(=O)[C@H](CC(C)C)N(C)C(=O)C[C@@H](C(=O)N(C)C)N(C)C(=O)[C@H](C2CCCC2)N(C)C(=O)C2(CCCC2)NC(=O)[C@@H]2CCCN2C(=O)[C@H](CCc2ccc(C(F)(F)F)c(Cl)c2)NC(=O)CN(C)C(=O)[C@@H]1Cc1ccc(C(F)(F)F)cc1 [PP0440] ([NMeL]I[Sar][Aze][NPrPhe(4-CF3)][Sar][hPhe(3-Cl-4-CF3)]P[Ac5c][NMeGly(cPent)][NMeD]-NMe2; lactam N-11) |  |  | 0.046 | C (A compound having a KD ratio of 0.1 or more and less than 3 is denoted as C) | B (a compound having 3 or more and less than 10 is denoted as B) |  | 
4 | CCC(CC)[C@H]1C(=O)N(C)[C@H](C(=O)N(C)C)CC(=O)N(C)[C@@H](COC)C(=O)N[C@@H]([C@@H](C)CC)C(=O)N(C)CC(=O)N(C)[C@H]2C/C=C\CCN(C2=O)[C@@H](Cc2ccc(C(F)(F)F)cc2)C(=O)N(C)CC(=O)N[C@@H](CCc2ccc(Cl)c(Cl)c2)C(=O)N2CCOC[C@H]2C(=O)NC2(CC(C)(C)C2)C(=O)N1C [PP2941] |  |  | 2.5 |  |  | AA (a compound having 20 or more is denoted as AA) | A (a compound having 10 or more and less than 20 is denoted as A)
5 | CCCN1C(=O)CN(C)C(=O)CN(C)C(=O)[C@H]([C@@H](C)CC)NC(=O)[C@H](CC(C)C)N(C)C(=O)C[C@@H](C(=O)N(C)C)N(C)C(=O)[C@H](C2CCCC2)N(C)C(=O)C2(CCC2)NC(=O)[C@@H]2CC(F)(F)CN2C(=O)[C@H](CCc2ccc(C(F)(F)F)c(Cl)c2)NC(=O)CN(C)C(=O)[C@@H]1Cc1ccc(C(F)(F)F)cc1 [PP0414] ([NMeL]I[Sar][Sar][NPrPhe(4-CF3)][Sar][hPhe(3-Cl-4-CF3)][Pro(4,4-F2)][Ac4c][NMeGly(cPent)][NMeD]-NMe2; lactam N-11) |  |  | 0.029 | B (a compound having 3 or more and less than 10 is denoted as B) | C (A compound having a KD ratio of 0.1 or more and less than 3 is denoted as C) |  | 
